Measurements: patent US7078195B2, “Antibiotics AA-896” (Wyeth Holdings Corporation, priority 2001, dated 2006)
Converted amounts (≈) assume the structure as drawn.

What was measured:
Assay in all cases: Broth dilution MIC
Format in all cases: cell-based
CNS GC 4537 = conditions: Mueller-Hinton broth, 18 hours at 35° C.; for MIC: read-out: Antimicrobial Activity (MIC)
Protocol: (§1) The in vitro antibacterial activity of AA-896-A1, AA-896-A2, AA-896-A3, AA-896-A4, AA-896-A5, AA-896-B1, AA-896-B2, AA-896-B3, AA-896-B4, AA-896-B5, AA-896-B6, AA-896-B7, AA-896-C1, AA-896-C2, AA-896-C3, AA-896-C4, AA-896-D1, AA896-D2 and AA-896-D3 is determined against a spectrum of Gram-positive and Gram-negative bacteria by a standard broth dilution method. Serial dilution of the compounds are made in Mueller-Hinton broth and inoculated with a bacterial suspension. The lowest concentration of compound that inhibited the growth of a bacterial strain after 18 hours of incubation at 35° C. is reported as the minimal inhibitory concentration (MIC) for that strain.

CNS GC 4538 = conditions: Mueller-Hinton broth, 18 hours at 35° C.; for MIC: read-out: Antimicrobial Activity (MIC)
Protocol: as §1

CNS GC 4547 = conditions: Mueller-Hinton broth, 18 hours at 35° C.; for MIC: read-out: Antimicrobial Activity (MIC)
Protocol: as §1

E. cloacae GC 3783 = conditions: 18 hours at 35° C.; for Antimicrobial Activity (MIC): Mueller-Hinton broth; for MIC: Enterobacter cloacae, GC3783, Mueller-Hinton broth, read-out: Antimicrobial Activity (MIC)
Protocol: as §1

E. coli GC 2203 = conditions: 18 hours at 35° C.; for Antimicrobial Activity (MIC): Mueller-Hinton broth; for MIC: Escherichia coli, GC2203, Mueller-Hinton broth, read-out: Antimicrobial Activity (MIC)
Protocol: as §1

E. coli GC 3226 = conditions: 18 hours at 35° C.; for Antimicrobial Activity (MIC): Mueller-Hinton broth; for MIC: Escherichia coli, GC3226, Mueller-Hinton broth, read-out: Antimicrobial Activity (MIC)
Protocol: as §1

E. coli GC 4559 = conditions: 18 hours at 35° C.; for Antimicrobial Activity (MIC): Mueller-Hinton broth; for MIC: Escherichia coli, GC4559, Mueller-Hinton broth, read-out: Antimicrobial Activity (MIC)
Protocol: as §1

E. coli GC 4560 = conditions: 18 hours at 35° C.; for Antimicrobial Activity (MIC): Mueller-Hinton broth; for MIC: Escherichia coli, GC4560, Mueller-Hinton broth, read-out: Antimicrobial Activity (MIC)
Protocol: as §1

E. faecalis GC 2242 = conditions: 18 hours at 35° C.; for Antimicrobial Activity (MIC): Mueller-Hinton broth; for MIC: Enterococcus faecalis, GC2242, Mueller-Hinton broth, read-out: Antimicrobial Activity (MIC)
Protocol: as §1

E. faecalis GC 4555 = conditions: 18 hours at 35° C.; for Antimicrobial Activity (MIC): Mueller-Hinton broth; for MIC: Enterococcus faecalis, GC4555, Mueller-Hinton broth, read-out: Antimicrobial Activity (MIC)
Protocol: as §1

E. faecalis GC 842 = conditions: 18 hours at 35° C.; for Antimicrobial Activity (MIC): Mueller-Hinton broth; for MIC: Enterococcus faecalis, GC842, Mueller-Hinton broth, read-out: Antimicrobial Activity (MIC)
Protocol: as §1

K. pneumoniae GC 4534 = conditions: 18 hours at 35° C.; for Antimicrobial Activity (MIC): Mueller-Hinton broth; for MIC: Klebsiella pneumoniae, GC4534, Mueller-Hinton broth, read-out: Antimicrobial Activity (MIC)
Protocol: as §1

M. morganii GC 4531 = conditions: 18 hours at 35° C.; for Antimicrobial Activity (MIC): Mueller-Hinton broth; for MIC: Morganella morganii, GC4531, Mueller-Hinton broth, read-out: Antimicrobial Activity (MIC)
Protocol: as §1

P. aeruginosa GC 2214 = conditions: 18 hours at 35° C.; for Antimicrobial Activity (MIC): Mueller-Hinton broth; for MIC: Pseudomonas aeruginosa, GC2214, Mueller-Hinton broth, read-out: Antimicrobial Activity (MIC)
Protocol: as §1

P. aeruginosa GC 4532 = conditions: 18 hours at 35° C.; for Antimicrobial Activity (MIC): Mueller-Hinton broth; for MIC: Pseudomonas aeruginosa, GC4532, Mueller-Hinton broth, read-out: Antimicrobial Activity (MIC)
Protocol: as §1

P. rettgeri GC 4530 = conditions: 18 hours at 35° C.; for Antimicrobial Activity (MIC): Mueller-Hinton broth; for MIC: Providencia rettgeri, GC4530, Mueller-Hinton broth, read-out: Antimicrobial Activity (MIC)
Protocol: as §1

S. aureus GC 1131 = conditions: 18 hours at 35° C.; for Antimicrobial Activity (MIC): Mueller-Hinton broth; for MIC: Staphylococcus aureus, GC1131, Mueller-Hinton broth, read-out: Antimicrobial Activity (MIC)
Protocol: as §1

S. aureus GC 2216 = conditions: 18 hours at 35° C.; for Antimicrobial Activity (MIC): Mueller-Hinton broth; for MIC: Staphylococcus aureus, GC2216, Mueller-Hinton broth, read-out: Antimicrobial Activity (MIC)
Protocol: as §1

S. aureus GC 4536 = conditions: 18 hours at 35° C.; for Antimicrobial Activity (MIC): Mueller-Hinton broth; for MIC: Staphylococcus aureus, GC4536, Mueller-Hinton broth, read-out: Antimicrobial Activity (MIC)
Protocol: as §1

S. marcescens GC 4077 = conditions: 18 hours at 35° C.; for Antimicrobial Activity (MIC): Mueller-Hinton broth; for MIC: Serratia marcescens, GC4077, Mueller-Hinton broth, read-out: Antimicrobial Activity (MIC)
Protocol: as §1

E. faecalis GC 242 = conditions: Mueller-Hinton broth, 18 hours at 35° C.
Protocol: as §1

Antimicrobial Activity (MIC) (CNS GC 4537) | Antimicrobial Activity (MIC) (CNS GC 4538) | Antimicrobial Activity (MIC) (CNS GC 4547) | Antimicrobial Activity (MIC) (E. cloacae GC 3783) | Antimicrobial Activity (MIC) (E. coli GC 2203) | Antimicrobial Activity (MIC) (E. coli GC 3226) | Antimicrobial Activity (MIC) (E. coli GC 4559) | Antimicrobial Activity (MIC) (E. coli GC 4560) | Antimicrobial Activity (MIC) (E. faecalis GC 2242) | Antimicrobial Activity (MIC) (E. faecalis GC 4555) | Antimicrobial Activity (MIC) (E. faecalis GC 842) | Antimicrobial Activity (MIC) (K. pneumoniae GC 4534) | Antimicrobial Activity (MIC) (M. morganii GC 4531) | Antimicrobial Activity (MIC) (P. aeruginosa GC 2214) | Antimicrobial Activity (MIC) (P. aeruginosa GC 4532) | Antimicrobial Activity (MIC) (P. rettgeri GC 4530) | Antimicrobial Activity (MIC) (S. aureus GC 1131) | Antimicrobial Activity (MIC) (S. aureus GC 2216) | Antimicrobial Activity (MIC) (S. aureus GC 4536) | Antimicrobial Activity (MIC) (S. marcescens GC 4077) | Compound | further results
>32 µg/mL | >32 µg/mL | >32 µg/mL | 32 µg/mL | >32 µg/mL | 32 µg/mL | >32 µg/mL | 1 µg/mL | >32 µg/mL | >32 µg/mL | >32 µg/mL | >32 µg/mL | >32 µg/mL | 32 µg/mL | 32 µg/mL | >32 µg/mL | >32 µg/mL | >32 µg/mL | >32 µg/mL | >32 µg/mL | COC1C(OC(C(NCCCNC(=O)C(CC(C)C)NC(=O)C(NC(=O)NC(C(=O)O)C(C)C)C2CCNC(=N)N2)C(=O)O)C2OC(n3ccc(=O)[nH]c3=O)C(O)C2O)OC(CN)C1O [AA-896-D1, 5-O-[5-Amino-5-deoxy-2-O-methyl-β-D-ribofuranosyl]-6-[[3-[2-[2-[[(1-carboxy-2-methyl-propyl)carbamoyl]amino]-2-(hexahydro-2-iminopyrimidin-4-yl)acetamido]-4-methyl-pentanamido]propyl]amino]-1,6-dideoxy-1-(3,4-dihydro-2,4-dioxopyrimidin-1(2H)-yl)-β-D-heptofuranuronic acid] | 
 |  |  |  |  |  |  |  |  |  |  |  |  |  |  |  |  |  |  |  | CC(C)C(NC(=O)NC(C(=O)NC(C(=O)NCCCNC(C(=O)O)C(O)C1OC(n2ccc(=O)[nH]c2=O)C(O)C1O)C(OC(=O)CCCCCCCCCCCCN(O)C(=N)N)C(C)C)C1CCNC(=N)N1)C(=O)O [AA-896-A5, 6-[[3-[3-[[13-(Carbamimidoylhydroxyamino)tridecanoyl]oxy]-2-[2-[[(1-carboxy-2-methyl-propyl)carbamoyl]amino]-2-(hexahydro-2-iminopyrimidin-4-yl)acetamido]-4-methyl-pentanamido]propyl]amino]-1,6-dideoxy-1-(3,4-dihydro-2,4-dioxopyrimidin-1(2H)-yl)-β-D-heptofuranuronic acid] | MIC (CNS GC 4537): 16 µg/mL (≈ 15 µM); MIC (CNS GC 4538): 4 µg/mL (≈ 3.74 µM); MIC (CNS GC 4547): 16 µg/mL (≈ 15 µM); MIC (E. cloacae GC 3783): 1 µg/mL (≈ 0.934 µM); MIC (E. coli GC 2203): 16 µg/mL (≈ 15 µM); MIC (E. coli GC 3226): 16 µg/mL (≈ 15 µM); MIC (E. coli GC 4559): 4 µg/mL (≈ 3.74 µM); MIC (E. coli GC 4560): ≤ 0.06 µg/mL; MIC (E. faecalis GC 2242): > 64 µg/mL; MIC (E. faecalis GC 4555): 32 µg/mL (≈ 29.9 µM); MIC (E. faecalis GC 842): > 64 µg/mL; MIC (K. pneumoniae GC 4534): 8 µg/mL (≈ 7.48 µM); MIC (M. morganii GC 4531): > 64 µg/mL; MIC (P. aeruginosa GC 2214): 32 µg/mL (≈ 29.9 µM); MIC (P. aeruginosa GC 4532): 32 µg/mL (≈ 29.9 µM); MIC (P. rettgeri GC 4530): > 64 µg/mL; MIC (S. aureus GC 1131): 16 µg/mL (≈ 15 µM); MIC (S. aureus GC 2216): 16 µg/mL (≈ 15 µM); MIC (S. aureus GC 4536): 8 µg/mL (≈ 7.48 µM); MIC (S. marcescens GC 4077): > 64 µg/mL
 |  |  |  |  |  |  |  |  |  |  |  |  |  |  |  |  |  |  |  | CC(C)C(NC(=O)NC(C(=O)NC(C(=O)NCCCNC(C(=O)O)C(O)C1OC(n2ccc(=O)[nH]c2=O)C(O)C1O)C(O)C(C)C)C1CCNC(=N)N1)C(=O)O [AA-896-C4, 6-[[3-[2-[2-[[(1-Carboxy-2-methylpropyl)carbamoyl]amino]-2-(hexahydro-2-iminopyrimidin-4-yl)acetamido]-3-hydroxy-4-methylpentanamido]propyl]amino]-1,6-dideoxy-1-(3,4-dihydro-2,4-dioxopyrimidin-1(2H)-yl)-β-D-heptofuranuronic acid] | MIC (CNS GC 4537): > 32 µg/mL; MIC (CNS GC 4538): > 32 µg/mL; MIC (CNS GC 4547): > 32 µg/mL; MIC (E. cloacae GC 3783): > 32 µg/mL; MIC (E. coli GC 2203): > 32 µg/mL; MIC (E. coli GC 3226): > 32 µg/mL; MIC (E. coli GC 4559): > 32 µg/mL; MIC (E. coli GC 4560): 4 µg/mL (≈ 4.99 µM); MIC (E. faecalis GC 2242): > 32 µg/mL; MIC (E. faecalis GC 4555): > 32 µg/mL; MIC (E. faecalis GC 842): > 32 µg/mL; MIC (K. pneumoniae GC 4534): > 32 µg/mL; MIC (M. morganii GC 4531): > 32 µg/mL; MIC (P. aeruginosa GC 2214): 32 µg/mL (≈ 40 µM); MIC (P. aeruginosa GC 4532): 32 µg/mL (≈ 40 µM); MIC (P. rettgeri GC 4530): > 32 µg/mL; MIC (S. aureus GC 1131): > 32 µg/mL; MIC (S. aureus GC 2216): > 32 µg/mL; MIC (S. aureus GC 4536): > 32 µg/mL; MIC (S. marcescens GC 4077): > 32 µg/mL
>64 µg/mL | >64 µg/mL | >64 µg/mL | 16 µg/mL | >64 µg/mL | >64 µg/mL | 64 µg/mL | <=0.06 μg/ml | >64 µg/mL | >64 µg/mL | >64 µg/mL | 64 µg/mL | >64 µg/mL | >64 µg/mL | >64 µg/mL | >64 µg/mL | >64 µg/mL | >64 µg/mL | >64 µg/mL | >64 µg/mL | CC(C)CCCCC(=O)OC(C(C)C)C(NC(=O)C(NC(=O)NC(C(=O)O)C(C)C)C1CCNC(=N)N1)C(=O)NCCCNC(C(=O)O)C(OC1OC(CN)C(O)C1O)C1OC(n2ccc(=O)[nH]c2=O)C(O)C1O [AA-896-B7, 5-O-[5-Amino-5-deoxy-β-D-ribofuranosyl]-6-[[3-[2-[2-[[(1-carboxy-2-methylpropyl)-carbamoyl]amino]-2-(hexahydro-2-iminopyrimidin-4-yl)acetamido]-4-methyl-3-[(6-methylheptanoyl)oxy]pentanamido]propyl]amino]-1,6-dideoxy-1-(3,4-dihydro-2,4-dioxopyrimidin-1(2H)-yl)-β-D-heptofuranuronic acid] | 
>32 µg/mL | >32 µg/mL | >32 µg/mL | 16 µg/mL | >32 µg/mL | 32 µg/mL | >32 µg/mL | 0.06 µg/mL |  | >32 µg/mL | >32 µg/mL | >32 µg/mL | >32 µg/mL | >32 µg/mL | >32 µg/mL | >32 µg/mL | >32 µg/mL | >32 µg/mL | >32 µg/mL | >32 µg/mL | CCC(C)CCCCC(=O)OC(C(C)C)C(NC(=O)C(NC(=O)NC(C(=O)O)C(C)C)C1CCNC(=N)N1)C(=O)NCCCNC(C(=O)O)C(O[C@@H]1O[C@H](CN)[C@@H](O)[C@H]1OC)C1OC(n2ccc(=O)[nH]c2=O)C(O)C1O (stereo partly drawn) [AA-896-B3, 5-O-[5-Amino-5-deoxy-2-O-methyl-β-D-ribofuranosyl]-6-[[3-[2-[2-[[(1-carboxy-2-methyl-propyl)carbamoyl]amino]-2-(hexahydro-2-iminopyrimidin-4-yl)acetamido]-4-methyl-3-[(6-methyloctanoyl)oxy]pentanamido]propyl]amino]-1,6-dideoxy-1-(3,4-dihydro-2,4-dioxopyrimidin-1(2H)-yl)-β-D-heptofuranuronic acid] | Antimicrobial Activity (MIC) (E. faecalis GC 242): >32 µg/mL
